# Target: T1, AhR (Homo sapiens, UniProt P35869)
# T1 construct: endogenous in cells; host or cells: HepG2
# T1 sequence (P35869 11-848): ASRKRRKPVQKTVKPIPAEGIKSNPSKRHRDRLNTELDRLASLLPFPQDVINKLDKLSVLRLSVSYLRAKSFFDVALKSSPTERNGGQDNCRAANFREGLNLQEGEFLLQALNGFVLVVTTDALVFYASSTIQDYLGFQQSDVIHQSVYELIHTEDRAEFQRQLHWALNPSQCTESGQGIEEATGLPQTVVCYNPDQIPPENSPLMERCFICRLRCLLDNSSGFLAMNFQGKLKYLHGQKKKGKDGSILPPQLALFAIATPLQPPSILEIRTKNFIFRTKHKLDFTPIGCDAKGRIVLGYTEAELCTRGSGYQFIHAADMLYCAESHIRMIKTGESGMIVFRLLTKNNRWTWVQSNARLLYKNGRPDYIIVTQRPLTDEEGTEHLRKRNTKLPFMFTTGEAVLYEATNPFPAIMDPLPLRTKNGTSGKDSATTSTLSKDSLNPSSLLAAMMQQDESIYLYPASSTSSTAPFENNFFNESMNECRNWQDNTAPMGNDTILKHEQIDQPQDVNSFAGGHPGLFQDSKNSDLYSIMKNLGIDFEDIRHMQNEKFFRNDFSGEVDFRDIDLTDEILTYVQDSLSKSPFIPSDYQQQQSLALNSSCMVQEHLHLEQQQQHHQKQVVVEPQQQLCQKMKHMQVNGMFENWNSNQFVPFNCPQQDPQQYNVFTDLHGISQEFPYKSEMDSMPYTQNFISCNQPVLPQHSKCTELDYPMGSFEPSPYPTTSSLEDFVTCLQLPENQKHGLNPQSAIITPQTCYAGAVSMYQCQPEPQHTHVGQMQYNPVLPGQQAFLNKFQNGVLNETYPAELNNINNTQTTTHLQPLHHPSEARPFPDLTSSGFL
# Assay: AhR nuclear translocation assay in HepG2 cells
# Type: cell-based
# Details: for AhR nuclear staining (% positive cells) 2 h: vehicle 15.6; for AhR nuclear staining (% positive cells) 24 h: vehicle 3.4
# Method: HepG2 cells were plated in Lab-Tek II Chamber slides (Nalgene, Rochester, NY) at a seeding density of 50,000 cells/well. The cells were allowed to attach overnight and were treated for 2 h or 24 h with 10 or 40 μM A-998679, 2 μM 3-methylchloranthrene (3-MC) as a positive control, or 0.1% (v/v) DMSO vehicle. The cells were fixed in fresh 3% paraformaldehyde solution in PBS followed by a PBS wash, and were then permeabilized for 5 min using 0.2% Triton X-100 in PBS followed by another PBS wash. The cells were then incubated with blocking buffer consisting of 1% BSA/PBS solutions and immediately incubated with a 1:50 dilution of rabbit polyclonal antibody to AhR (Abcam, Cambridge, MA catalog# 63636) for 1 h at 37°C. Cells were then washed with PBS, re-blocked for 10 min, and stained with an Alexa 546 donkey anti-rabbit secondary antibody (diluted 1:200; Invitrogen Life Technologies) for 45 min at 37°C. The cells were then washed with PBS, stained with 0.5 μM Hoescht solution for 15 min, and again washed with PBS. The chamber slides were sealed and examined under the microscope. Images were acquired with a SPOT RT SE digital camera (Diagnostic Instruments, Sterling Heights, MI) mounted on a Leica (Wetzlar, Germany) DMIRE inverted florescence microscope using a 20× objective. Image acquisition was done using Metamorph® software (Molecular Devices, Sunnyvale, CA) and percent translocation of the AhR probe was quantitated using MetaXpress (Molecular Devices). Twenty microscope fields were evaluated per well (~3000–6000 cells/well).
compound,measurement,setting,value
"N#Cc1cccc(-c2noc(-c3cccnc3)n2)c1 [A-998679, 3-(5-pyridin-3-yl-1,2,4-oxadiazol-3-yl) benzonitrile]",AhR nuclear staining (% positive cells) 2 h,10 μM,18.8 % positive cells
same,AhR nuclear staining (% positive cells) 24 h,10 μM,4.5 % positive cells
same,AhR nuclear staining (% positive cells) 2 h,40 μM,29.6 % positive cells
same,AhR nuclear staining (% positive cells) 24 h,40 μM,6.3 % positive cells
